{"source": "patent US6967095B2", "about": "“Human secretory type phospholipase A2” (Shionogi & Co., Ltd., priority 1998, dated 2005)", "key": {"[1]": {"target": "IB type secretory type PLA2 (Homo sapiens, UniProt P04054)", "sequence (P04054 23-148)": "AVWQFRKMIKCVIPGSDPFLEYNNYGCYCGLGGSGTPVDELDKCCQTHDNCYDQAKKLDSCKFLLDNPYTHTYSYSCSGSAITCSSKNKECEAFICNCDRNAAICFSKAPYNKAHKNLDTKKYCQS", "settings": "already reported, Yokota et al., Biochim. Biophys. Acta (1999) 1438, 213-222; cited from earlier work"}, "[2]": {"target": "T1, human PLA2 of this invention (IID type) (Homo sapiens, UniProt Q9UNK4)", "T1 construct": "made in house", "T1 sequence (Q9UNK4 21-145)": "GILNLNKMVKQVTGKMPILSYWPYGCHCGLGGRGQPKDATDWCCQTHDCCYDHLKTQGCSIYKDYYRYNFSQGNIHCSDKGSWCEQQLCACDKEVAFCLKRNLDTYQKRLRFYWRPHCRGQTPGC", "assay": "Inhibition of secretory PLA2 activity, release of 14C-oleic acid from 14C-POPC", "type": "biochemical", "settings": "IID type from culture supernatant of CHO cells; 1 mM POPC, 3 mM deoxycholic acid, 2 mM CaCl2, pH 8.0, 40° C., 60 min; FIG. 4", "method": "(§1) Inhibitory activity against this novel type of human secretory type PLA2 was determined with Indoxam that is a 1-oxamoylindolidine derivative. It has already been reported that Indoxam inhibits the enzymatic activities of IIA type and IB type secretory type PLA2 (Yokota et al., Biochim. Biophys. Acta (1999) 1438, 213-222). The PLA2 activities were determined by the measurement of the quantity of released ^14C-oleic acid from ^14C-labeled 1-palmitoyl-2-oleoyl-phosphatidylcholine (POPC), according to the Draheim et al.'s method (J. Med. Chem., (1996) 39, 5159-5175). In the solution composed of 50 mM Tris-HCl (pH 8.0), 200 mM NaCl, 2 mM CaCl2, and 1 mg/ml bovine serum albumin, the substrates composed of 1 mM POPC (the mixture of about 100,000 cpm ^-C-POPC and unlabeled POPC) and 3 mM deoxycholic acid were incubated with each secretory PLA2 in the presence of various concentrations of Indoxam at 40° C. for 60 min. Then, the quantity of released ^-C-oleic acid was measured. Purified materials were used in the case with human IB type (2 ng), IIA type (10 ng) and X type (4 ng). […]\n(§2) The quantity of released ^14C-oleic acid from ^14C-POPC by each human secretory type PLA2 in the absence of Indoxam was regarded as 100% and the quantity of released ^14C-oleic acid in the presence of each concentration of Indoxam was shown as %."}, "[3]": {"target": "T2, human IIA type secretory PLA2 (Homo sapiens, UniProt P14555)", "T2 sequence (P14555 21-144)": "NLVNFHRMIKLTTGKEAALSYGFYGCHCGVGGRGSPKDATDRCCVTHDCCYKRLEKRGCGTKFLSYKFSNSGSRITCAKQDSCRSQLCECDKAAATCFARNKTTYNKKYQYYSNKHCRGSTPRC", "assay": "Inhibition of secretory PLA2 activity, release of 14C-oleic acid from 14C-POPC", "type": "biochemical", "settings": "purified human IIA type (10 ng); 1 mM POPC, 3 mM deoxycholic acid, 2 mM CaCl2, pH 8.0, 40° C., 60 min; FIG. 4", "method": "as §1, §2"}, "[4]": {"target": "T3, IIA type secretory type PLA2 (Homo sapiens, UniProt P14555)", "T3 sequence (P14555 21-144)": "T2 sequence (P14555 21-144)", "settings": "already reported, Yokota et al., Biochim. Biophys. Acta (1999) 1438, 213-222; cited from earlier work"}}, "data": [{"smiles": "CCc1c(C(=O)C(N)=O)c2c(OCC(=O)O)cccn2c1Cc1ccccc1-c1ccccc1", "note": "[Indoxam]", "values": [{"measurement": "inhibition of enzymatic activity of IB type secretory type PLA2", "setting": "[1]", "result": "inhibits"}, {"measurement": "inhibition of enzymatic activity (released 14C-oleic acid as % of that without Indoxam)", "setting": "[2]", "result": "strongly inhibits"}, {"measurement": "inhibition of enzymatic activity (released 14C-oleic acid as % of that without Indoxam)", "setting": "[3]", "result": "strongly inhibits"}, {"measurement": "inhibition of enzymatic activity of IIA type secretory type PLA2", "setting": "[4]", "result": "inhibits"}]}]}
